Test results taken from ChEMBL document CHEMBL1137964, “Synthesis and biological evaluation of 6-aryl-6H-pyrrolo[3,4-d]pyridazine derivatives: high-affinity ligands to the alpha 2 delta subunit of voltage gated calcium channels” (Bioorg Med Chem Lett, 2004).

Key:
[1] = target: Voltage-dependent calcium channel subunit alpha-2/delta-1 (Homo sapiens, UniProt P54289); experiment: Binding affinity for huamn alpha2-delta1 subunit of voltage gated calcium channel over-expressed in A710 cell membranes using [3H]-gabapentin
[2] = Half-life period was determined in rats at 10 mg/kg, p.o. dose; type: ADME, organism-based; set-up: dose 10 mg/kg, route oral; settings: rat, in vivo, po
[3] = Half-life period was determined in rats at 20 mg/kg, i.p. dose; type: ADME, organism-based; set-up: dose 20 mg/kg, route intraperitoneal; settings: rat, in vivo, ip
[4] = Half-life period was determined in rats at 2 mg/kg, i.v. dose; type: ADME, organism-based; set-up: dose 2 mg/kg, route intravenous; settings: rat, in vivo, iv
[5] = Plasma clearance rate was determined in rats at 2 mg/kg, i.v. dose; type: ADME, organism-based; set-up: dose 2 mg/kg, route intravenous; settings: rat, iv, read-out: Clp
Rattus norvegicus [6] = experiment: Time required by compound for reaching maximum plasma concentration was determined in rats at 20 mg/kg, i.p. dose; type: ADME, organism-based; set-up: dose 20 mg/kg, route intraperitoneal; settings: in vivo, ip
[7] = Volume of distribution at steady state was determined in rats at 2 mg/kg, i.v. dose; type: ADME, organism-based; set-up: dose 2 mg/kg, route intravenous; settings: rat, in vivo, iv, read-out: Vdss
[8] = Plasma concentration was determined in rats at 10 mg/kg, p.o. dose; type: ADME, organism-based; set-up: dose 10 mg/kg, route oral; settings: rat, po
[9] = Plasma concentration was determined in rats at 20 mg/kg, i.p. dose; type: ADME, organism-based; set-up: dose 20 mg/kg, route intraperitoneal; settings: rat, ip
[10] = Plasma concentration was determined in rats at 2 mg/kg, i.v. dose; type: ADME, organism-based; set-up: dose 2 mg/kg, route intravenous; settings: rat, iv
[11] = Maximum plasma concentration in rats at 10 mg/kg, p.o. dose; type: ADME, organism-based; set-up: dose 10 mg/kg, route oral; settings: rat, po
[12] = Maximum plasma concentration in rats at 20mg/kg, i.p. dose; type: ADME, organism-based; set-up: dose 20 mg/kg, route intraperitoneal; settings: rat, ip
[13] = Bioavailability was determined in rats at 10 mg/kg, p.o. dose; type: ADME, organism-based; settings: rat, in vivo, po
Rattus norvegicus [14] = experiment: Time required by compound for reaching maximum plasma concentration was determined in rats at 10 mg/kg, p.o. dose; type: ADME, organism-based; set-up: dose 10 mg/kg, route oral; settings: in vivo, po

Voltage-dependent calcium channel subunit alpha-2/delta-1, sequence (P54289 25-956 limits assumed): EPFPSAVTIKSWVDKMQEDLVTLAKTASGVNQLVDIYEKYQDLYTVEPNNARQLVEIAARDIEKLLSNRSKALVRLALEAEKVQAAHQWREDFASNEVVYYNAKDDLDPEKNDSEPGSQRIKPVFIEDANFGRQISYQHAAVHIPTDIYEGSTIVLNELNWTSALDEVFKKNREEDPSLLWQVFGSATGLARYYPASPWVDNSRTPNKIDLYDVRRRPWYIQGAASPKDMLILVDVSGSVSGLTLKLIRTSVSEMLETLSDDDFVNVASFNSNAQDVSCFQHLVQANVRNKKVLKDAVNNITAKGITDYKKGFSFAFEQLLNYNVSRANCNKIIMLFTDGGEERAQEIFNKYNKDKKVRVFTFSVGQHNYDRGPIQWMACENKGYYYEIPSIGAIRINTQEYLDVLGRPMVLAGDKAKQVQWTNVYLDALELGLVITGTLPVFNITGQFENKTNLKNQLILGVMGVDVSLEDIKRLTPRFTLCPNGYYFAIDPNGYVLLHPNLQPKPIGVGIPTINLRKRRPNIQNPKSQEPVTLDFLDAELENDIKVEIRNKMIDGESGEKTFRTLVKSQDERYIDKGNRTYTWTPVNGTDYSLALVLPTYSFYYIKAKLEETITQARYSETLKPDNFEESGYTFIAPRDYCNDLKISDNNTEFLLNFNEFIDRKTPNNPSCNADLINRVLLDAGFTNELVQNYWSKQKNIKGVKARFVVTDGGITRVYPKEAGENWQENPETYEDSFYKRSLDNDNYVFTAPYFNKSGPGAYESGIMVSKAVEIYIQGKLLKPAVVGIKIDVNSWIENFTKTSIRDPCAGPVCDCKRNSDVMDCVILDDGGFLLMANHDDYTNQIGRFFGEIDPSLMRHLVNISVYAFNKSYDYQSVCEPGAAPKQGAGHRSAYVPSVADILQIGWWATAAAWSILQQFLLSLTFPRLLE
Voltage-dependent calcium channel subunit alpha-2/delta-1, sequence (P54289 957-1103 limits assumed): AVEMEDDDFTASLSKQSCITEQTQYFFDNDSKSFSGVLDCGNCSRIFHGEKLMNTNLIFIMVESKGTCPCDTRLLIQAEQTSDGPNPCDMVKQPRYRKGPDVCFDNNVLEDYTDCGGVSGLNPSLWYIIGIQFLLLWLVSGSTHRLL

With `CCOc1ccc(-n2c(C)c3c(C)nnc(-c4ccc(CC)cc4)c3c2C)cc1` as the compound, how does the IC50 [1] read?
The IC50 was 107 nM.

Which IC50 [1] does the source give for `CCOc1ccc(-n2c(C)c3c(C)nnc(-c4ccccc4Cl)c3c2C)cc1` here?
Its IC50 is 4370 nM.

With `CCOc1ccc(-n2c(C)c3c(C)nnc(CC(C)CC(C)(C)C)c3c2C)cc1` (stereo not drawn) as the compound, how does the IC50 [1] read?
The IC50 was 577 nM.

Which IC50 [1] does the source give for `CCOc1ccc(-n2c(C)c3c(C)nnc(Nc4ccc(OC)cc4)c3c2C)cc1` here?
Its IC50 is 440 nM.

With `CCCCCc1nnc(C)c2c(C)n(-c3ccc(OCC)cc3)c(C)c12` as the compound, how does the IC50 [1] read?
Its IC50 is 360 nM.

Which IC50 [1] does the source give for `CCOc1ccc(-n2c(C)c3c(C)nnc(CCC4CCCC4)c3c2C)cc1` here?
The IC50 was 148 nM.

With `COc1ccc(-n2c(C)c3c(C)nnc(C)c3c2C)cc1` as the compound, how does the IC50 [1] read?
Its IC50 is over 10000 nM.

Which IC50 [1] does the source give for `CCOc1ccc(-n2c(C)c3c(C)nnc(-c4ccc(OC(F)(F)F)cc4)c3c2C)cc1` here?
The IC50 was 1730 nM.

For `CCOc1ccc(-n2c(C)c3c(C)nnc(-c4cccc(Cl)c4)c3c2C)cc1`, which IC50 [1] is on record?
Its IC50 is 1600 nM.

For `CCOc1ccc(-n2c(C)c3c(C)nnc(Nc4ccc(C)cc4)c3c2C)cc1`, which IC50 [1] is on record?
Its IC50 is 240 nM.

Which IC50 [1] does the source give for `CCOc1ccc(-n2c(C)c3c(C)nnc(-c4ccc(-c5ccccc5)cc4)c3c2C)cc1` here?
Its IC50 is 1260 nM.

With `CCOc1ccc(-n2c(C)c3c(C)nnc(N(C)C)c3c2C)cc1` as the compound, how does the IC50 [1] read?
The IC50 was 170 nM.

Which IC50 [1] does the source give for `CCOc1ccc(-n2c(C)c3c(C)nnc(CC4CCCC4)c3c2C)cc1` here?
The IC50 was 211 nM.

For `CCOc1ccc(-n2c(C)c3c(C)nnc(C4CCCCC4)c3c2C)cc1`, which IC50 [1] is on record?
The IC50 was 235 nM.

With `CCOc1ccc(-n2c(C)c3c(C)nnc(C4CC4)c3c2C)cc1` as the compound, how does the IC50 [1] read?
Its IC50 is 170 nM.

For `CCOc1ccc(-n2c(C)c3c(C)nnc(OC)c3c2C)cc1`, which IC50 [1] is on record?
The IC50 was 2180 nM.

For `CCOc1ccc(-n2c(C)c3c(C)nnc(-c4cccc(OC)c4)c3c2C)cc1`, which IC50 [1] is on record?
The IC50 was 335 nM.

Which half-life [2] does the source give for `CCOc1ccc(-n2c(C)c3c(C)nnc(C)c3c2C)cc1` here?
The half-life was 4.5 h.

What about the half-life [3] of the same compound?
Its half-life is 1.2 h.

What about the half-life [4] of the same compound?
Its half-life is 0.91 h.

And the clearance [5]?
Its clearance is 18.5 mL/min/kg.

And the T max (Rattus norvegicus [6])?
Its T max is 0.3 h.

And the Vd [7]?
Its Vd is 1.3 L/kg.

And the AUC [8]?
The AUC was 27 µM·h.

What about the AUC [9] of the same compound?
The AUC was 141 µM·h.

What about the AUC [10] of the same compound?
The AUC was 6.4 µM·h.

What about the Cmax [11] of the same compound?
Its Cmax is 3.6 µM.

And the Cmax [12]?
The Cmax was 101 µM.

What about the bioavailability [13] of the same compound?
Its bioavailability is 81%.

What about the IC50 [1] of the same compound?
Its IC50 is 180 nM.

What about the T max (Rattus norvegicus [14]) of the same compound?
Its T max is 2.8 h.

With `CCOc1ccc(-n2c(C)c3c(C)nnc(-c4ccc(Cl)cc4)c3c2C)cc1` as the compound, how does the IC50 [1] read?
Its IC50 is 701 nM.

For `CCOc1ccc(-n2c(C)c3c(C)nnc(CC(C)C)c3c2C)cc1`, which IC50 [1] is on record?
The IC50 was 171 nM.

With `CCOc1ccc(-n2c(C)c3c(C)nnc(-c4ccc(C)cc4)c3c2C)cc1` as the compound, how does the IC50 [1] read?
The IC50 was 86 nM.

Which IC50 [1] does the source give for `CCOc1ccc(-n2c(C)c3c(C)nnc(CCC(C)C)c3c2C)cc1` here?
The IC50 was 263 nM.

With `CCOc1ccc(-c2nnc(C)c3c(C)n(-c4ccc(OCC)cc4)c(C)c23)cc1` as the compound, how does the IC50 [1] read?
The IC50 was 153 nM.

Which IC50 [1] does the source give for `CCOc1ccc(-n2c(C)c3c(C)nnc(Nc4ccccc4)c3c2C)cc1` here?
The IC50 was 75 nM.

Which IC50 [1] does the source give for `CCOc1ccc(-n2c(C)c3c(C)nnc(-c4ccc(OC)cc4OC)c3c2C)cc1` here?
The IC50 was 597 nM.

With `CCOc1ccc(-n2c(C)c3c(C)nnc(Nc4ccc(N)cc4)c3c2C)cc1` as the compound, how does the IC50 [1] read?
The IC50 was over 10000 nM.

With `CCOc1ccc(-n2c(C)c3c(C)nnc(-c4ccc(F)cc4)c3c2C)cc1` as the compound, how does the IC50 [1] read?
Its IC50 is 528 nM.

Which IC50 [1] does the source give for `CCOc1ccc(-n2c(C)c3c(C)nnc(-c4ccccc4)c3c2C)cc1` here?
The IC50 was 382 nM.

For `CCOc1ccc(-n2c(C)c3c(C)nnc(-c4ccccc4OC)c3c2C)cc1`, which IC50 [1] is on record?
The IC50 was 737 nM.

Which IC50 [1] does the source give for `CCOc1ccc(-n2c(C)c3c(C)nnc(C4CCCC4)c3c2C)cc1` here?
Its IC50 is 185 nM.

Which IC50 [1] does the source give for `CCOc1ccc(-n2c(C)c3c(C)nnc(CC)c3c2C)cc1` here?
The IC50 was 250 nM.

Which IC50 [1] does the source give for `CCOc1ccccc1-n1c(C)c2c(C)nnc(C)c2c1C` here?
Its IC50 is 1850 nM.

Which IC50 [1] does the source give for `CCOc1ccc(-n2c(C)c3c(C)nnc(NC)c3c2C)cc1` here?
Its IC50 is 40 nM.

Which IC50 [1] does the source give for `CCOc1ccc(-n2c(C)c3c(C)nnc(Nc4ccncc4)c3c2C)cc1` here?
Its IC50 is over 10000 nM.

With `CCOc1cccc(-n2c(C)c3c(C)nnc(C)c3c2C)c1` as the compound, how does the IC50 [1] read?
The IC50 was over 10000 nM.
